The data set has as its target T1, chymase (recombinant, manufactured by SIGMA) (Homo sapiens, UniProt P23946).
T1 construct: purchased SIGMA; host or cells: yeast
T1 sequence (P23946 22-247): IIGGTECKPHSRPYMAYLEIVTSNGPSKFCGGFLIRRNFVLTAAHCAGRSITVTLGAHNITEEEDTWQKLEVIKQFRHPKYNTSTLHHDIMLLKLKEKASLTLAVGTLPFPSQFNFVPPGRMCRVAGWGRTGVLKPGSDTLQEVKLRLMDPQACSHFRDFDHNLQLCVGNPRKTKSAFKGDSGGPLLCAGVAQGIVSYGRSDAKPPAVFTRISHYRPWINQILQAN
The data set can be described thus: Chymase inhibitory activity using synthetic substrate Suc-Ala-Ala-Pro-Phe-MCA. It counts as biochemical. The method, boiled down: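 Human recombinant chymase (16.7 nM or 1.67 nM final) preincubated 5 min at 37° C., then added to nucleic acid (0.0027–2 μM serial dilutions) and 100 μM substrate in solution C. AMC fluorescence (ex 380/em 460 nm) followed 5 or 30 min at 37° C.; slope gives initial velocity, inhibition versus no-inhibitor control yields IC50.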

The mark [1] stands for this setting: Table 4, same manner as Example 3, mean value for 2 to 3 measurements.
The mark [2] stands for this setting: Table 6, same manner as Example 3, mean value of two measurements.
The mark [3] stands for this setting: Table 5, same manner as Example 3, mean value of two measurements.
[4] abbreviates: Table 7, same manner as Example 3, mean value of two measurements.
Where [5] appears, read: Table 3, substrate 100 μM, solution C, 37° C., mean value for 2 to 3 measurements.

Oligonucleotides are written 5' to 3', each unit as a sugar letter and its base; * is a phosphorothioate linkage, no mark a phosphodiester; rarer units and linkages stand in square brackets, end groups in braces. Plain capitals give the bases only. r = 2'-OH (RNA); f = 2'-fluoro A value given as a limit tells only on which side of the number the result lay.

Broadly, the IC50 is the point on the concentration scale where inhibition reaches its midpoint.

In the case of “53 (GGGUAACUAUGGUUAGAUAGAGUUAAAAACCAUAGAAGACCC; 2'-fluoro at CU, RNA at AG, backbone not given here) [compound 53]”, the IC50 under setting [1] worked out at 66 ± 24 nM.
On to “54 (UAACUAUGGUUAGAUAGAGUUAAAAACCAUAGAAGA; 2'-fluoro at CU, RNA at AG, backbone not given here) [compound 54]”, for which, under setting [1], the IC50 was determined as 51 ± 33 nM.
As for “55 (CUAUGGUUAGAUAGAGUUAAAAACCAUAG; 2'-fluoro at CU, RNA at AG, backbone not given here) [compound 55]”, the IC50 under setting [1] turned out to be 55 ± 23 nM.
For the molecule “56 (GGGUUAGAUAGAGUUAAAAACCC; 2'-fluoro at CU, RNA at AG, backbone not given here) [compound 56]”, the IC50 reads like this: under setting [1], 46 ± 31 nM; under setting [2], 27 ± 2 nM.
With “58 (GGGUUGAAGAUAUUAAAGAACCC; 2'-fluoro at CU, RNA at AG, backbone not given here) [compound 58]”, the IC50 under setting [3] is over 1000 nM.
With “65 (rGrGfCrArGrAfUrArGrArGfUfUrArArArGfCfC) [compound 65]”, the IC50 under setting [3] came to 56 ± 46 nM.
Consider “70 (GGGTTAGAUAGAGUUAAAAACCC; chemistry not given here) [compound 70]”, for which, under setting [4], the 50% inhibitory concentration (IC50) came out at 27 ± 4 nM.
For “71 (GGGUUAGAUAGAGTUAAAAACCC; chemistry not given here) [compound 71]”, the IC50 under setting [4] is 28 ± 5 nM.
As to “72 (GGGTTAGAUAGAGTUAAAAACCC; chemistry not given here) [compound 72]”, under setting [4], the half-inhibitory concentration (IC50) came to 20 ± 2 nM.
Consider `CC(C)C[C@H](NC(=O)[C@@H](NC(=O)N[C@@H](Cc1ccccc1)C(=O)O)[C@@H]1CCN=C(N)N1)C(=O)N[C@H](C=O)Cc1ccccc1` [chymostatin, reference compound], for which the IC50 under setting [5] was 100 to 200 nM.
With “GGGU(F)U(F)GAAGAU(F)AU(F)U(F)AAAGAAC(F)C(F)C(F) (GGGUUGAAGAUAUUAAAGAACCC; 2'-fluoro at CU, RNA at AG, backbone not given here) [SEQ ID NO: 58]”, the half-maximal inhibitory concentration (IC50) under setting [3] was over 1000 nM, the IC50 under setting [2] is over 1000 nM and the half-inhibitory concentration (IC50) under setting [4] is over 1000 nM.

B1: 13 (nucleic acid)
chain: rGrGrGrAfCrGrGfUrArGrGrArAfUfUfCfCrGfCrArAfCfCrAfUfCfCfCrGfUrArAfCfUrAfUrGrGfUfUrArGrAfUrArGrArGfUfUrArArArArAfCfCrAfUrArGrArArGrArGfCrGrGfCfCrGfC
modifications: aptamer
Consider B1, for which, under setting [5], the half-inhibitory concentration (IC50) was determined as 58 ± 24 nM.

B2: 14 (nucleic acid)
chain: rGrGrGrAfCrGrGfUrArGrGrArAfUfUfCfUfCrGfUfUfCfCfUrGrAfCrArGfCrAfUfUfUrGrArGrAfUrArGrAfUfUfUrArArAfCrArArAfCrGfCrAfCrAfUrArGrArArGrArGfCrGrGfCfCrGfC
modifications: aptamer
For the molecule B2, the 50% inhibitory concentration (IC50) under setting [5] came to 61 ± 53 nM.

B3: 4 (nucleic acid)
chain: rGrGrGrAfCrGrGfUrArGrGrArAfUfUfCrGfUfCfCrAfUfUfCfUrAfCrArGrAfUrArGrArGrAfUrArArArGfUrArGrArAfUfUfUrArAfCrArArArAfCrAfUrArGrArArGrArGfCrGrGfCfCrGfC
modifications: aptamer
As to B3, the IC50 under setting [5] was 49 ± 3 nM.
